Measurements as given in publication PMC7754465, “Multiparameter Kinetic Analysis for Covalent Fragment Optimization by Using Quantitative Irreversible Tethering (qIT)” (Chembiochem, 2020).

Target: T1, Cdk2(ES) (Homo sapiens, UniProt P24941, C177A/F80C)
T1 construct: GST (N, cleaved yes); made in house; host or cells: E. coli Tuner(DE3)
Assay: concentration-dependent qIT with hyperbolic regression (Ki, kinact)
Assay type: binding
Settings: roughly linear dependency up to 500 μM
Description: Next we sought to carry out comprehensive kinetic analysis of the covalent binding to better understand the covSAR trends. Accordingly, the concentration dependency for the rate of reaction between Cdk2(ES) and key acrylamides 1, 6, 9 and 11 were determined using qIT (Figure 7c). To maintain pseudo‐first‐order reaction kinetics and stay within the solubility limits of the fragments, ligands were titrated from 25 to 500 μM. […] Indeed, comparing the binding conformations of the merged (9 and 11) and parent (1 and 6) fragments, we observe a subtle shift in the position of the core scaffolds and the orientation of the acrylamide link that likely explains the jump in potency that resulted from fragment merging. Overall, comparing acrylamides 9 and 11, we observe in a 3.7‐fold increase in k inact/K i and a 4.3‐fold increase in REF, and the consistency between these two orthogonal metrics of covalent fragment potency is encouraging for future applications of qIT to covalent fragment optimization.
H. Intact-protein mass spectrometry
Protein-mass data were obtained on a Waters micromass LC-TOF mass spectrometer in positive ion mode using electrospray ionization. Samples were chromatographed using an Acquity UPLC protein BEH C4 column (2.1 mm × 50 mm, 2.7 µm) with a flow rate of 30 µL/min. The injection volume was 5 µL of protein solution (5 µM) in 30 mM ammonium bicarbonate buffer con-taining 0.5% formic acid and 20% MeOH. The gradient used was 100% mobile phase A (0.1% formic acid in water/MeOH (19:1)) ramping linearly to 90% mobile phase B (0.1% formic acid in MeOH) over 5 minutes. The spectra were acquired from 500 to 2500 Da and deconvolution was performed with MassLynx (Waters), using the maximum entropy algorithm, over a mass range of […] with a mass step of 0.75. […]
Cdk2(WT) or Cdk2(ES) (1 mg) was sequentially incubated with aliquots of CAK1 (3 × 0.05 mg) at r.t. for 4 hours at a time in 1.5 mL of a 30 mM Tris/HCl buffer (pH 7.5) containing 10 mM MgCl2, 10 mM ATP and 3 mM DTT. As CAK1 appeared to be-come rapidly inactivated in the presence of pCdk2, three repetitions were required to drive the reaction to completion. The resulting solution was incubated with 50 µL of glutathione-Sepharose beads and filtered to remove remaining CAK1.
Kinase assays were performed by coupling the conversion of ATP into ADP to the oxidation of NADH (Abs = 340 nm) into NAD+, mediated by lactate dehydrogenase (LDH) and pyruvate kinase (PK). WT, mutant or ligand-conjugated pCdk2 (12.5 or 50 nM) was preincubated with Cyclin A2 (20 nM) in a buffer containing 50 mM Tris/HCl, 10 mM MgCl2, 5 mM DTT, 1 mM phosphoenolpyruvate, 0.24 mM NADH, 10 U mL-1 LDH, 14 U mL-1 PK and 5% DMSO at 37 °C for 30 minutes. Reactions were initiated by addition of 0.5 mM ATP and 0.24 mM substrate peptide (PKTPKKAKKL) and the absorbance at 340 nm was moni-tored for two hours. Assays were conducted at 37 °C and carried out in clear 384-well plates (Nunc) using a SpectraMax i3x plate reader (Molecular Devices) with a final volume of 20 µL in each well. After plotting Abs 340 against time, enzyme velocity was measured from the gradient during the linear phase of product accumulation.
Q. Concentration dependent qIT
The rate of reaction (kobs) for the reaction between each acrylamide (25, 50, 125, 250 and 500 µM) with Cdk2(ES) (5 µM) was determined us qIT (see D. Rate Determination by qIT) in duplicate. The average kobs was plotted against acrylamide concen-tration and hyperbolic regression analysis performed using Prism 8.0 software (GraphPad) to derive kinact and Ki.

Ki [µM]	SMILES
> 1000	C=CC(=O)N1CCCc2cc(C(=O)OC)ccc21 [compound 1]
> 1000	C=CC(=O)N1CCN(CC)c2ccccc21 [compound 6]
